Test [1] deals with Botrytis cinerea. In words: Fungicidal activity, microtiter plate format. Format: cell-based.
The subject of test [2] is Phytophthora infestans. In words: microbe, parasite or virus in culture. Format: cell-based. The following applies: read-out: IC50 P. infestans.
Test [3] relates to Stagonospora nodorum. In words: Fungicidal activity, microtiter plate format. Format: cell-based. Particulars: for IC50: Parastagonospora nodorum, read-out: IC50 S. nodorum.
Test [4] relates to Septoria tritici. Kind of test: Fungicidal activity, microtiter plate format. Format: cell-based.
In test [5] the test system is Puccinia recondita. Kind of test: Cereal field trial on soft red winter wheat (leaf rust). Format: in vivo. The following applies: wheat cultivar Sisson. The procedure: A field trial of Compound 4 was conducted on soft red winter wheat cultivar Sisson. Very dry weather gave rise to a low natural incidence of leaf rust (Puccinia recondita: PUCCRT) late in the trial. Compound 4 was applied as a 9.5% active ingredient (weight/weight) emulsifiable concentrate of the following formula (each weight/weight): 9.5% Compound 4, 9.5% m-Pyrol, 65% Surfadone LP-100, 6% Surfadone LP-300, 5% Toximul 3463F, and 5% Toximul 3464F. Rates of Compound 4 application were as follows (grams active ingredient per hectare: g a.i./ha): 140, 280 and 421.

Test [6] relates to Sclerotinia homoeocarpa. In words: Turf trial on creeping bentgrass (dollar spot).
Method: A fungicide trial was conducted on a 15-yr-old sward of creeping bentgrass v. Penncross during the spring. […] Treatments were arranged as plots (0.5×1.0 m) in a randomized complete block design with four replications. […] The turfgrass was inoculated with autoclaved tall fescue seed infested with Sclerotinia homoeocarpa (common name: dollar spot) six hours after application of the initial preventive treatments. The plots received approximately 0.24 inches of irrigation water daily at 1700 hour to ensure nightly foliar wetness for infection. The Horsfall-Barratt rating scale was used to visually estimate disease severity at approximately 7-day intervals from the initial application date. Turfgrass quality was assessed using a 0-9 scale where 0=a necrotic, thin foliar canopy and 9=a dark green, dense foliar canopy. Disease and quality values were subjected to analysis of variance and means were statistically separated using the Scott-Knott cluster analysis procedure.
Setting [7] is: fungal growth on agar, 20° C., 3-5 days, C.V. class in parentheses.

Where two headings read alike, the source gives them in different places.

Broadly, the IC50 is the point on the concentration scale where inhibition reaches its midpoint.

Consider `C[Si](C)(C)c1onc(-c2c(Cl)cccc2Cl)c1C(O)c1cccnc1` (stereo not shown) [Compound 1, 3-(2,6-Dichlorophenyl)-4-[(3-pyridyl)hydroxymethyl]-5-trimethylsilylisoxazole], for which the IC50 is more than 100 µM in test [1] (Botrytis cinerea, read-out: IC50 B. cinerea); more than 100 µM in test [2]; more than 100 µM in test [3]. For the same molecule, in test [4], the “IC50 S. tritici” value was “C (b)”.
`C[Si](C)(C)c1onc(-c2ccc(Cl)cc2Cl)c1C(O)c1cccnc1` (stereo not shown) [Compound 3, 3-(2,4-Dichlorophenyl)-4-[(3-pyridyl)hydroxymethyl]-5-trimethylsilylisoxazole]: the “IC50 B. cinerea” value in test [1] is given as “B (b)”. Further, in test [2], the 50% inhibitory concentration (IC50) is more than 100 µM. The “IC50 S. nodorum” value in test [3] is “B (d)”. In addition, the “IC50 S. tritici” value in test [4] is on record as “A (b)”.
On to `OC(c1cccnc1)c1c(-c2ccc(Cl)cc2Cl)noc1-c1cccc(Cl)c1` (stereo not shown) [Compound 4, 5-(3-Chlorophenyl)-3-(2,4-dichlorophenyl)-4-[(3-pyridyl)hydroxymethyl]-isoxazole], for which the “IC50 B. cinerea” value in test [1] (setting [7]) is “B (d)”. The IC50 in test [2] is more than 100 µM. The “IC50 S. nodorum” value in test [3] (setting [7]) is “A (b)”. For the same molecule, the “IC50 S. tritici” value in test [4] (setting [7]) is given as “A (c)”. Also, the “Control of leaf rust incidence” value in test [5] (9.5% emulsifiable concentrate, 140, 280 and 421 g a.i./ha, low natural incidence) is “good control of the rust incidence”. Moreover, the Yield enhancement result in test [5] (highest rate of Compound 4) is listed as “Yield enhancement was observed”. Moreover, in test [6] (creeping bentgrass v. Penncross, Compound 4 as 25% wetable powder at 2.2, 4.4, 8.8 g a.i./1000 sq ft, mean disease <3.0% acceptable), the “Dollar spot disease control (Horsfall-Barratt disease severity)” value is given as “effective control on dollar spot during most of the trial period”. In addition, the “Turfgrass quality (0-9 scale)” value in test [6] (creeping bentgrass, ratings >6.0 acceptable) is listed as “Highest quality ratings”.
With `CC(C)(C)c1onc(-c2ccc(Cl)cc2Cl)c1C(O)c1cccnc1` (stereo not shown) [Compound 7, 3-(2,4-Dichlorophenyl)-5-(1,1-dimethylethyl)-4-[(3-pyridyl)hydroxymethyl]-isoxazole], in test [1] (setting [7]), the “IC50 B. cinerea” value is “B (c)”. Besides, the IC50 in test [2] is more than 100 µM; in test [3] (setting [7]), more than 100 µM; in test [4] (Zymoseptoria tritici, fungal growth on agar, 20° C., 3-5 days, C.V. class in parentheses, read-out: IC50 S. tritici), more than 100 µM.
With `OC(c1cccnc1)c1c(-c2ccc(Cl)cc2Cl)noc1-c1cccs1` (stereo not shown) [Compound 12, 3-(2,4-Dichlorophenyl)-4-[(3-pyridyl)hydroxymethyl]-5-(2-thienyl)isoxazole], the “IC50 B. cinerea” value in test [1] (setting [7]) is on record as “B (c)”. Moreover, the IC50 in test [2] was more than 100 µM. Besides, the “IC50 S. nodorum” value in test [3] (setting [7]) is recorded as “B (d)”. For the same molecule, the “IC50 S. tritici” value in test [4] (setting [7]) is given as “A (b)”.
For `OC(c1cccnc1)c1c(-c2ccc(Cl)cc2Cl)noc1-c1ccsc1` (stereo not shown) [Compound 13, 3-(2,4-Dichlorophenyl)-4-[(3-pyridyl)hydroxymethyl]-5-(3-thienyl)isoxazole] the same measures were “B (b)”, more than 100 µM, “B (d)” and “A (b)”.
